Results reported in patent US20140121231A1, “PYRANOPYRIDONE INHIBITORS OF TANKYRASE” (Hoffmann-La Roche, Inc., priority 2012, published 2014).
pIC50: −log10 of the molar value.

Molecular target: T1, PARP1 (His6-PARP1, full length) (Homo sapiens, UniProt P09874)
T1 construct: His6-PARP1 (full length) can be substituted for His6-TNKS 1
Test: TR-FRET Binding Assay (Example 71), PARP1
Conditions: TR-FRET assay of Example 71 with His6-PARP1
Method in brief: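 Competition binding: test compound displaces biotin-IWR2 from His6-PARP1 (full length), read by Eu-streptavidin/APC-anti-His6 TR-FRET. PARP1 30 min at 26°C with compound and probe in Tris pH 7.4 buffer with DTT, BSA and NP-40, then detection reagents for 60 min. Excitation 330 nm, emission 615 and 665 nm; […].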

T1 sequence (P09874 whole entry, species assumed): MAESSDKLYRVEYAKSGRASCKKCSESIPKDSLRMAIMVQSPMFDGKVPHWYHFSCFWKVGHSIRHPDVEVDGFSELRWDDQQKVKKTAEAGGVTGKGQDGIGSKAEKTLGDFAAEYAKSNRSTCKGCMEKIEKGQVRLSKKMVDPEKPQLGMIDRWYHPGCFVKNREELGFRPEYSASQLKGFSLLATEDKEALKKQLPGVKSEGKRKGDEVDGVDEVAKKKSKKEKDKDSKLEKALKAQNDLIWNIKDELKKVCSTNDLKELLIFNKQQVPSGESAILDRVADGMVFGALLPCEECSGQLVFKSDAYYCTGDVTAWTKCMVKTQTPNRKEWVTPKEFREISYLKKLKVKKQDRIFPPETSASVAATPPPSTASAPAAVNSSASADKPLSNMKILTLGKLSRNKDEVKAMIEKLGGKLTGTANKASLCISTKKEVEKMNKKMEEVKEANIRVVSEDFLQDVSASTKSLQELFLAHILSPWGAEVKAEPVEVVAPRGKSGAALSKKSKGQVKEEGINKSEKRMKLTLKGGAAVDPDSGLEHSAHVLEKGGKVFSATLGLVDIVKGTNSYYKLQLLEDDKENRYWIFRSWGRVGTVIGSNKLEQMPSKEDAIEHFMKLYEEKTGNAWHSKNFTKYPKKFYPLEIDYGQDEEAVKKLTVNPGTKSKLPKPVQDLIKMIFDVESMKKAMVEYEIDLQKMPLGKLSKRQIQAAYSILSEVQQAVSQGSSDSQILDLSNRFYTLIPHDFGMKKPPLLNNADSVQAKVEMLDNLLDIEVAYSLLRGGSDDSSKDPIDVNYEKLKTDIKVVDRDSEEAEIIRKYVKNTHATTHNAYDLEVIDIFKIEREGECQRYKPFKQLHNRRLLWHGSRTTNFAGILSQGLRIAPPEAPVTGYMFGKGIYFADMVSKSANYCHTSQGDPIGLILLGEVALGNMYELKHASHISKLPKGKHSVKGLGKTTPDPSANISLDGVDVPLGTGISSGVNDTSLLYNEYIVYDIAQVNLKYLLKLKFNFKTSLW

| Compound | pIC50 |
| --- | --- |
| Cc1cccc2c(=O)[nH]c3c(c12)COC(C(C)(C)CO)C3 (racemic) [Compound I-1, rac-2-(2-Hydroxy-1,1-dimethyl-ethyl)-5-methyl-1,2,4,10-tetrahydro-3-oxa-10-aza-phenanthren-9-one] | 7.04 |

Test system: Wnt stimulated TCF transcriptional activity
Test: Tankyrase 1 Assay (Example 72): HEK293-TS 112 TCF reporter cell line
Type: cell-based
Conditions: footnote 2: Tankyrase 1 inhibition assay in Example 72 (TOPbrite luciferase reporter, Wnt3A 0.5 ug/mL, 16 hours); read-out: TNKS1 IC50
Procedure: Inhibition of the Wnt stimulated TCF transcriptional activity by tankyrase inhibitors was determined utilizing a HEK293-TS 112 TCF reporter cell line. A Wnt-responsive luciferase reporter named TOPbrite was constructed by cloning the enhancer element of Super8xTOPFlash containing eight TCF/LEF binding sites into the pGL4.28 vector (Promega) upstream of the minimal promoter element, and selecting for hygromycin B resistance (50 μg/ml). Cells were seeded into 384-well plates in the presence of 0.5 ug/mL of Wnt3A at a density of 20,000 cells per well in 25 ul of F:12 DMEM media supplemented with 10% FBS and 2 mM Glutamax. Cells seeded without the addition of Wnt3A were used as background signal. Compounds of various concentrations were added to cells and incubated at 37 degrees with 5% CO2 for 16 hours. The assay was terminated with the addition of Promega Dual Glo kit per manufacturer's instructions. A ratio of TOPbrite Firefly Luciferase and SV40 Renillla Luciferase was calculated and the background from the neutral wells was subtracted yielding the final normalized measurement of TCF transcriptional activity. Compound IC50s were determined by four-parameter curve fitting using GeneData software.

| Compound | pIC50 |
| --- | --- |
| Cc1cccc2c(=O)[nH]c3c(c12)COC(C(C)(C)CO)C3 (racemic) [Compound I-1, rac-2-(2-Hydroxy-1,1-dimethyl-ethyl)-5-methyl-1,2,4,10-tetrahydro-3-oxa-10-aza-phenanthren-9-one] | 7.97 |
| CC(C)C1Cc2[nH]c(=O)c3cccc(F)c3c2CO1 (stereo not shown) [Compound I-69, 10-Fluoro-3-isopropyl-1 3 4 5-tetrahydropyrano[4,3-c]isoquinolin-6-one] | 7.95 |
| CC(C)C1Cc2[nH]c(=O)c3cccc(Cl)c3c2CO1 (stereo not shown) [Compound I-70, 10-chloro-3-isopropyl-1 3 4 5-tetrahydropyrano[4,3-c]isoquinolin-6-one] | 7.89 |
| Cc1cccc2c(=O)[nH]c3c(c12)COC(C1CCN(C2COC2)CC1)C3 (stereo not shown) [Compound I-71, 10-methyl-3-[1-(oxetan-3-yl)-4-piperidyl]-1 3 4 5-tetrahydropyrano[4,3-c]isoquinolin-6-one] | 8.70 |
| Cc1cccc2c(=O)[nH]c3c(c12)COC(C1CCN(C2CCOCC2)CC1)C3 (stereo not shown) [Compound I-72, 10-Methyl-3-(1-tetrahydropyran-4-yl-4-piperidyl)-1 3 4 5-tetrahydropyrano[4,3-c]isoquinolin-6-one] | 7.03 |
| COCCN1CCC(C2Cc3[nH]c(=O)c4cccc(C)c4c3CO2)CC1 (stereo not shown) [Compound I-73, 3-[1-(2-methoxyethyl)-4-piperidyl]-10-methyl-1 3 4 5-tetrahydropyrano[4,3-c]isoquinolin-6-one] | 7.53 |
| Cc1cccc2c(=O)[nH]c3c(c12)COC(C1CCN(S(=O)(=O)C2CCOCC2)CC1)C3 (stereo not shown) [Compound I-74, 10-methyl-3-(1-tetrahydropyran-4-ylsulfonyl-4-piperidyl)-1 3 4 5-tetrahydropyrano[4,3-c]isoquinolin-6-one] | 8.02 |
| Cc1cccc2c(=O)[nH]c3c(c12)COC(C1CCN(CCO)CC1)C3 (stereo not shown) [Compound I-75, 3-[1-(2-hydroxyethyl)-4-piperidyl]-10-methyl-1 3 4 5-tetrahydropyrano[4,3-c]isoquinolin-6-one] | 7.57 |
| Cc1cccc2c(=O)[nH]c3c(c12)COC(CC(C)O)C3 (stereo not shown) [Compound I-76, 3-(2-hydroxypropyl)-10-methyl-1 3 4 5-tetrahydropyrano[4,3-c]isoquinolin-6-one] | 7.80 |
